Experimental data published in ChEMBL document CHEMBL1141094, “Bisphosphonate inhibition of the exopolyphosphatase activity of the Trypanosoma brucei soluble vacuolar pyrophosphatase” (J Med Chem, 2005).

What was measured:
[1] = molecular target: T1, Vacuolar-type proton translocating pyrophosphatase 1 (Trypanosoma brucei) (UniProt Q8MTZ4); experiment: Ratio of ED50 against KB cell line to that of IC50 of TbVSP1; type: functional, cell-based
T1 sequence (whole entry): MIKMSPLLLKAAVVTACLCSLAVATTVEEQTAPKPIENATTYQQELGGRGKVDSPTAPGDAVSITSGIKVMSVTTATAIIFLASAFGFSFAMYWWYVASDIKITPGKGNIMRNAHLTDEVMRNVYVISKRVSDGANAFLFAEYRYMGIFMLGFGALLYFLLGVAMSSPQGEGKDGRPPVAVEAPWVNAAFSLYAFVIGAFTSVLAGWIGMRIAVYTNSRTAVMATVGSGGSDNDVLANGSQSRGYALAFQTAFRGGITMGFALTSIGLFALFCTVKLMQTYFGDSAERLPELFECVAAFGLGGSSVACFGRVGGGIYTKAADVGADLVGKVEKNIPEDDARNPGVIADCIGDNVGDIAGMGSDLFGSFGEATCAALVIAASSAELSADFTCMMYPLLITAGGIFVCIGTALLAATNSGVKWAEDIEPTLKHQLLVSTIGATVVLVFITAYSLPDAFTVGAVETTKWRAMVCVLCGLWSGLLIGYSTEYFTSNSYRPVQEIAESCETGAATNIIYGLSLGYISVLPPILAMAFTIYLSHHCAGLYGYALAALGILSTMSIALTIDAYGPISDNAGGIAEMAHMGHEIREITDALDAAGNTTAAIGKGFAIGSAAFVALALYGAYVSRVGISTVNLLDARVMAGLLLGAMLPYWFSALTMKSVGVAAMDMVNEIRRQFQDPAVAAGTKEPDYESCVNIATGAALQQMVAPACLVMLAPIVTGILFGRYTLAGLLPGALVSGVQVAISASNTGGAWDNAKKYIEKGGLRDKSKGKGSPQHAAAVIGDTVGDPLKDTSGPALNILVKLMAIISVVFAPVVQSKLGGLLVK

KB = experiment: Dose to inhibit the growth of human KB carcinoma cell line; type: functional; details: read-out: ED50 (the source's name)

Row | Compound | TI [1] | EC50 (KB)
1 | O=P(O)(O)C(CNc1ccccn1)P(=O)(O)O | 0.4 | 144 µM
2 | CCCCCCCCCNC(P(=O)(O)O)P(=O)(O)O [(NONYLAMINO)METHYLENEDIPHOSPHONIC ACID] | 16 | 919 µM
3 | CCc1cccc(NC(P(=O)(O)O)P(=O)(O)O)n1 | 15 | 847 µM
4 | Nc1ccc(CC(O)(P(=O)(O)O)P(=O)(O)O)cc1 | 4 | 218 µM
5 | O=P(O)(O)C(O)(Cc1cccc2ccccc12)P(=O)(O)O | 75 | 847 µM
6 | O=P(O)(O)C(O)(Cn1ccnc1)P(=O)(O)O [ZOLEDRONIC ACID] | 0.3 | 63.7 µM
7 | CC(C)(C)c1cc(NC(P(=O)(O)O)P(=O)(O)O)cc(C(C)(C)C)c1 | 39 | 634 µM
8 | O=P(O)(O)C(NC1CCCCCC1)P(=O)(O)O [INCADRONIC ACID] | 3.7 | 166 µM
9 | CCCCCCCCCC(O)(P(=O)(O)O)P(=O)(O)O | 2.5 | 892 µM
10 | CC(C)c1cccc(C(C)C)c1NC(P(=O)(O)O)P(=O)(O)O | 28 | 713 µM
11 | CC(C)c1cccc(NC(P(=O)(O)O)P(=O)(O)O)c1 | 79 | 771 µM
12 | CCCCNC(P(=O)(O)O)P(=O)(O)O [(BUTYLAMINO)METHYLENEDIPHOSPHONIC ACID] | 4.9 | 212 µM
13 | O=P(O)(O)C(Nc1cccc(Cc2ccccc2)c1)P(=O)(O)O | 14 | 645 µM
14 | O=P(O)(O)C(Nc1cccc(-c2ccccc2)c1)P(=O)(O)O | 174 | 749 µM
15 | CCCCC(O)(P(=O)(O)O)P(=O)(O)O | 82 | 1040 µM
16 | O=P(O)(O)C(O)(Cc1cccc(C(F)(F)F)c1)P(=O)(O)O | 6.3 | 109 µM
17 | O=P(O)(O)C(O)(Cc1cccnc1)P(=O)(O)O [RISEDRONIC ACID] | 0.4 | 255 µM

Row | Compound | TI [1] | EC50 (KB)
18 | O=P(O)(O)C(Nc1ccc2c(c1)CCC2)P(=O)(O)O | 101 | 976 µM
19 | CCc1cccc(NC(P(=O)(O)O)P(=O)(O)O)c1 | 423 | 1020 µM
20 | O=P(O)(O)C(O)(Cc1cccc(F)c1)P(=O)(O)O | 20 | 225 µM
21 | CCc1ccc(NC(P(=O)(O)O)P(=O)(O)O)cc1 | 21 | 257 µM
22 | CCCCCCCCCCCCCCCC(O)(P(=O)(O)O)P(=O)(O)O | 2.1 | 729 µM
23 | O=P(O)(O)C(O)(Cc1cccc(Br)c1)P(=O)(O)O | 25 | 228 µM
24 | CCCCCC(O)(P(=O)(O)O)P(=O)(O)O | 10 | 107 µM
25 | CCn1c2ccccc2c2ccc(NC(P(=O)(O)O)P(=O)(O)O)cc21 | 19 | 710 µM
26 | O=P(O)(O)C(O)(Cc1cccc(Cl)c1)P(=O)(O)O | 38 | 283 µM
27 | CCCCCCCCC(O)(P(=O)(O)O)P(=O)(O)O | 1.3 | 64 µM
28 | Cc1cccc(CC(O)(P(=O)(O)O)P(=O)(O)O)c1 | 0.04 | 0.9 µM
29 | CCCCOc1ccc(NC(P(=O)(O)O)P(=O)(O)O)cc1 | 5.3 | 210 µM
30 | O=[N+]([O-])c1cccc(CC(O)(P(=O)(O)O)P(=O)(O)O)c1 | 44 | 727 µM
31 | CCCNC(P(=O)(O)O)P(=O)(O)O [(PROPYLAMINO)METHYLENEDIPHOSPHONIC ACID] | 10 | 499 µM
32 | O=P(O)(O)C(Nc1ccc(Cl)cc1Cl)P(=O)(O)O [2,4-DICHLOROPHENYLAMINOMETHYLENEBISPHOSPHONIC ACID] | 169 | 728 µM
33 | O=P(O)(O)C(Nc1ccc(-c2ccccc2)cc1)P(=O)(O)O | 1.4 | 495 µM
34 | CN(CCOc1ccccc1)CCC(O)(P(=O)(O)O)P(=O)(O)O | 1 | 312 µM
